For 29 molecules, IC50 results are on record in patent US10131664B2 (Celgene Quanticel Research, Inc., priority 2013, dated 2018).

In test [1] the test system is THP-1 (AML) cells. In words: LSD1 CD11b cellular assay (flow cytometry). In kind it is cell-based. Conditions: Homo sapiens, 96 h; CD11b expression in THP-1 (AML) cells, flow cytometry, 4 days incubation; read-out: Cellular IC50. The gist of the method: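 THP-1 AML cells treated with serially diluted compound (0.2% DMSO final) for 4 days at 37 °C, 5% CO2. CD11b expression measured by flow cytometry with DAPI staining; IC50 derived from percent CD11b-positive cells versus inhibitor concentration.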

Test [2] concerns the target full-length human LSD1 (Homo sapiens (Human), UniProt O60341). In words: In vitro enzyme inhibition assay LSD-1 (TR-FRET). In kind it is biochemical. Conditions: TR-FRET, 0.1 nM LSD1, 50 nM H3K4me1-biotin peptide, 2 μM FAD, pH7.3; read-out: LSD1 IC50. The protocol:
This assay determines the ability of a test compound to inhibit LSD1 demethylase activity.
The enzymatic assay of LSD1 activity is based on Time Resolved-Fluorescence Resonance Energy Transfer (TR-FRET) detection.
The ability of the compounds disclosed herein to inhibit LSD1 activity was quantified and the respective IC50 value was determined. Table 5 provides the IC50 values of various substituted heterocyclic compounds disclosed herein.
(In general: TR-FRET usually uses a lanthanide donor and a delayed reading to cut background.)

As a reminder, the IC50 is the point on the concentration scale where inhibition reaches its midpoint.

`COc1nc(N2CCC(N)CC2)nc(-c2ccc(C#N)cc2)c1-c1cnc(N(C)C)nc1` [Example 156, 4-[2-(4-aminopiperidin-1-yl)-5-[2-(dimethylamino)pyrimidin-5-yl]-6-methoxypyrimidin-4-yl]benzonitrile]: the concentration for half-maximal inhibition (IC50) in test [1] and in test [2] was < 100 nM in each case.

With `Cn1nncc1C#Cc1cnc(N2CCC(N)CC2)nc1-c1ccc(C#N)c(F)c1` [Example 98], the concentration for half-maximal inhibition (IC50) in test [1] is 100 to 1000 nM; in test [2], < 100 nM.

`N#Cc1ccc(-c2nc(N3CCC(N)CC3)ncc2-c2ccc(OCC3CC3)nc2)cc1` [Example 124, 4-[2-(4-aminopiperidin-1-yl)-5-[6-(cyclopropylmethoxy)pyridin-3-yl]pyrimidin-4-yl]benzonitrile]: the IC50 in test [1] and in test [2] was < 100 nM in each case.

With `COc1nc(N2CCC(N)CC2)nc(-c2ccc(C#N)cc2)c1-c1ccc(N(C)C)nc1` [Example 155, 4-[2-(4-aminopiperidin-1-yl)-5-[6-(dimethylamino)pyridin-3-yl]-6-methoxypyrimidin-4-yl]benzonitrile], the half-maximal inhibitory concentration (IC50) in test [1] and in test [2] was < 100 nM each time.

For `Cc1ccc(-c2cc(NC[C@H]3[C@@H]4CNC[C@@H]43)nn2-c2ccc(C#N)cc2)cc1` [Example 47, 4-[3-[[(1S,5R)-3-azabicyclo[3.1.0]hexan-6-yl]methylamino]-5-(4-methylphenyl)pyrazol-1-yl]benzonitrile], the IC50 in test [1] is 100 to 1000 nM; in test [2] it was < 100 nM.

On to `Cn1cc2cc(-c3cnc(N4CCC(N)CC4)nc3-c3ccc(C#N)cc3)cnc2n1` [Example 85, 4-[2-(4-aminopiperidin-1-yl)-5-(2-methylpyrazolo[3,4-b]pyridin-5-yl)pyrimidin-4-yl]benzonitrile], for which the 50% inhibitory concentration (IC50) was 100 to 1000 nM in test [1] and < 100 nM in test [2].

As to `N#Cc1ccc(-c2nc(NC[C@H]3CCNC3)ncc2-c2ccc(F)cc2)cc1` [Example 18, 4-[5-(4-fluorophenyl)-2-{[(3S)-pyrrolidin-3-ylmethyl]amino}pyrimidin-4-yl]benzonitrile], the IC50 in test [1] was 100 to 1000 nM; in test [2], < 100 nM.

Consider `CNC1CCN(c2ncc(-c3cnn(CC(F)(F)F)c3)c(-c3ccc(C#N)c(F)c3)n2)CC1` [Example 89, 2-fluoro-4-[2-[4-(methylamino)piperidin-1-yl]-5-[1-(2,2,2-trifluoroethyl)pyrazol-4-yl]pyrimidin-4-yl]benzonitrile], for which the IC50 in test [1] and in test [2] was < 100 nM throughout.

For the molecule `Cn1cc2cc(-c3cnc(N4CC5C(N)C5C4)nc3-c3ccc(C#N)c(F)c3)ccc2n1` (stereo not shown) [Example 144, 4-[2-(6-amino-3-azabicyclo[3.1.0]hexan-3-yl)-5-(2-methylindazol-5-yl)pyrimidin-4-yl]-2-fluorobenzonitrile], the values for the IC50 in test [1] and in test [2] were 100 to 1000 nM and < 100 nM, respectively.

Turning to `N#Cc1ccc(-c2nc(N3CCC(N)CC3)ncc2-c2ccc3nc[nH]c3c2)cc1` [Example 91, 4-[2-(4-aminopiperidin-1-yl)-5-(3H-benzimidazol-5-yl)pyrimidin-4-yl]benzonitrile], the values for the half-inhibitory concentration (IC50) in test [1] and in test [2] were 100 to 1000 nM and < 100 nM, respectively.

Regarding `N#Cc1ccc(-c2nc(N3CCC(N)CC3)ncc2-c2ccc(OCC(F)(F)F)nc2)cc1` [Example 131, 4-[2-(4-aminopiperidin-1-yl)-5-[6-(2,2,2-trifluoroethoxy)pyridin-3-yl]pyrimidin-4-yl]benzonitrile], the 50% inhibitory concentration (IC50) in test [1] was 100 to 1000 nM; in test [2], < 100 nM.

As for `CNc1nc(N2CCC(N)CC2)nc(-c2ccc(C#N)c(F)c2)c1-c1cnn(CC(F)(F)F)c1` [Example 167, 4-[2-(4-aminopiperidin-1-yl)-6-(methylamino)-5-[1-(2,2,2-trifluoroethyl)-1H-pyrazol-4-yl]pyrimidin-4-yl]-2-fluorobenzonitrile], the half-inhibitory concentration (IC50) in test [1] and in test [2] was < 100 nM throughout.

For `Cc1nn(C)c2ccc(-c3cnc(N4CCC(N)CC4)nc3-c3ccc(C#N)c(F)c3)cc12` [Example 93, 4-[2-(4-aminopiperidin-1-yl)-5-(1,3-dimethylindazol-5-yl)pyrmidin-4-yl]-2-fluorobenzonitrile], the half-inhibitory concentration (IC50) in test [1] and in test [2] was < 100 nM throughout.

For `Cn1cc2cc(-c3cnc(N4CCC(N)CC4)nc3-c3ccc(C#N)c(F)c3)ccc2n1` [Example 59, 4-[2-(4-aminopiperidin-1-yl)-5-(2-methylindazol-5-yl)pyrimidin-4-yl]-2-fluorobenzonitrile], the IC50 in test [1] and in test [2] was < 100 nM in each case.

As for `Cc1ccc(-c2cnc(NC[C@H]3CCNC3)nc2-c2ccc(C#N)cc2)cc1` [Example 16, 4-[5-(4-methylphenyl)-2-{[(3S)-pyrrolidin-3-ylmethyl]amino}pyrimidin-4-yl]benzonitrile], the half-maximal inhibitory concentration (IC50) in test [1] and in test [2] was < 100 nM each time.

On to `Cn1cc2cc(-c3cnc(N4CCC(N)C(F)C4)nc3-c3ccc(C#N)c(F)c3)ccc2n1` (stereo not shown) [Example 112, 4-[2-(4-amino-3-fluoropiperidin-1-yl)-5-(2-methylindazol-5-yl)pyrimidin-4-yl]-2-fluorobenzonitrile], for which the half-inhibitory concentration (IC50) in test [1] and in test [2] was < 100 nM each time.

Turning to `N#Cc1ccc(-c2nc(N3CCC(N)CC3)ncc2-c2cnn(C3CCOCC3)c2)cc1F` [Example 142, 4-[2-(4-aminopiperidin-1-yl)-5-[1-(oxan-4-yl)pyrazol-4-yl]pyrimidin-4-yl]-2-fluorobenzonitrile], the half-inhibitory concentration (IC50) in test [1] and in test [2] was < 100 nM throughout.

Consider `Cn1nc2ccc(-c3cnc(N4CCC(N)CC4)nc3-c3ccc(C#N)c(F)c3)cc2c1N` [Example 95, 4-[5-(3-amino-2-methylindazol-5-yl)-2-(4-aminopiperidin-1-yl)pyrimidin-4-yl]-2-fluorobenzonitrile], for which the 50% inhibitory concentration (IC50) in test [1] and in test [2] was < 100 nM in each case.

With `CNc1nc(N2CCCNCC2)nc(-c2ccc(C#N)cc2)c1-c1ccc2nn(C)cc2c1` [Example 172, 4-[2-(1,4-diazepan-1-yl)-5-(2-methyl-2H-indazol-5-yl)-6-(methylamino)pyrimidin-4-yl]benzonitrile], the IC50 in test [1] and in test [2] was < 100 nM in each case.

As for `N#Cc1ccc(-c2nc(N3CCC(N)C(O)C3)ncc2-c2cnn(CC(F)(F)F)c2)cc1F` (stereo not shown) [Example 103, 4-[2-(4-amino-3-hydroxypiperidin-1-yl)-5-[1-(2,2,2-trifluoroethyl)pyrazol-4-yl]pyrimidin-4-yl]-2-fluorobenzonitrile], the IC50 in test [1] is 100 to 1000 nM; in test [2], < 100 nM.

For the molecule `COc1nc(N2CCC(N)CC2)nc(-c2ccc(C#N)cc2)c1-c1cnc2c(c1)nnn2C` [Example 158, 4-[2-(4-aminopiperidin-1-yl)-6-methoxy-5-{3-methyl-3H-[1,2,3]triazolo[4,5-b]pyridin-6-yl}pyrimidin-4-yl]benzonitrile], the IC50 in test [1] and in test [2] was < 100 nM throughout.

Regarding `COc1ccc(-c2cnc(N3CCC(N)CC3)nc2-c2ccc(C#N)cc2)cc1F` [Example 84, 4-[2-(4-aminopiperidin-1-yl)-5-(3-fluoro-4-methoxyphenyl)pyrimidin-4-yl]benzonitrile], the half-maximal inhibitory concentration (IC50) in test [1] and in test [2] was < 100 nM throughout.

`Cc1ccc(-c2cc(NC[C@@H]3CCNC3)nn2-c2ccc(C#N)cc2)cc1` [Example 45, 4-[5-(4-methylphenyl)-3-[[(3R)-pyrrolidin-3-yl]methylamino]pyrazol-1-yl]benzonitrile]: the values for the half-maximal inhibitory concentration (IC50) in test [1] and in test [2] were 100 to 1000 nM and < 100 nM, respectively.

Turning to `N#Cc1ccc(-c2cc3c(ccn3C[C@H]3CCNC3)nc2N2CCOCC2)cc1` [Example 7, 4-[5-morpholin-4-yl-1-[[(3S)-pyrrolidin-3-yl]methyl]pyrrolo[3,2-b]pyridin-6-yl]benzonitrile], the IC50 in test [1] is 100 to 1000 nM; in test [2], < 100 nM.

For the molecule `Cn1ncc2nc(-c3cnc(N4CCC(N)CC4)nc3-c3ccc(C#N)cc3)ccc21` [Example 67, 4-[2-(4-aminopiperidin-1-yl)-5-(1-methylpyrazolo[4,3-b]pyridin-5-yl)pyrimidin-4-yl]benzonitrile], the half-maximal inhibitory concentration (IC50) is 100 to 1000 nM in test [1] and < 100 nM in test [2].

Consider `Cn1cnc2cc(-c3cnc(N4CCC(N)CC4)nc3-c3ccc(C#N)c(F)c3)ccc21` [Example 87, 4-[2-(4-aminopiperidin-1-yl)-5-(1-methylbenzimidazol-5-yl)pyrimidin-4-yl]-2-fluorobenzonitrile], for which the IC50 in test [1] and in test [2] was < 100 nM each time.

`Cn1ncc2cc(-c3cnc(N4CCC5CNCC5CC4)nc3-c3ccc(C#N)cc3)cnc21` (stereo not shown) [Example 65, 4-[2-(2,3,3a,4,5,7,8,8a-octahydro-1H-pyrrolo[3,4-d]azepin-6-yl)-5-(1-methylpyrazolo[3,4-b]pyridin-5-yl)pyrimidin-4-yl]benzonitrile]: the IC50 in test [1] and in test [2] was < 100 nM throughout.

For the molecule `COc1nc(N2CCC(N)CC2)nc(-c2ccc(C#N)cc2)c1-c1ccc2nn(C)cc2c1` [Example 152, 4-[2-(4-aminopiperidin-1-yl)-6-methoxy-5-(2-methyl-2H-indazol-5-yl)pyrimidin-4-yl]benzonitrile], the IC50 in test [1] and in test [2] was < 100 nM in each case.

In the case of `Cc1ccc(-c2cnc(N[C@@H]3C[C@H]4CNC[C@H]4C3)nc2-c2ccc(C#N)cc2)cc1` [Example 27, 4-(2-{[(3aR,5S,6aS)-octahydrocyclopenta[c]pyrrol-5-yl]amino}-5-(4-methylphenyl)pyrimidin-4-yl)benzonitrile], the IC50 in test [1] and in test [2] was 100 to 1000 nM each time.
